Tests used:
[1] = Refractive index (Kruess AR 4 D Abbe refractometer); type: physicochemical; conditions: 20.0° C., wavelength 589 nm
Description: The refractive index of the halogenated epoxy functional ether derivative was measured with a Kruess AR 4 D device (refractometer according to Abbe's measure principle). The refractive index was measured at 20.0° C. and at a wavelength of 589 nm.

[2] = system: Salmonella Strains TA98 and TA100; assay: AMES mutagenicity testing protocol (OECD Guideline 471, ISO 10993-3); type: cell-based; set-up: key: tested to be non mutagenic
Source text: The mutagenicity of the halogenated epoxy functional ether derivative according to the AMES mutagenicity testing protocol has been tested according to OECD Guideline 471 and ISO 10993-3 (2003).

**Q.** For `CC(C)(c1cc(Cl)c(OCCCC2CO2)c(Cl)c1)c1cc(Cl)c(OCCCC2CO2)c(Cl)c1` (stereo not shown) [Example 3, 2,2-Bis[3,5-dichloro-4-(4,5-epoxy-pentyloxy)-phenyl]-propane], which “Refractive Index” value [1] is on record?
**A.** The value was 1.571.

**Q.** And the “Mutagenic [yes/no]” value [2]?
**A.** The value was “n^1)”.

**Q.** For “1,5-Bis[2-(2,3-epoxy-propyl)-4,6-dichloro-phenyl]-pentane [Example 2]”, which “Refractive Index” value [1] is on record?
**A.** Its value is 1.561.

**Q.** What about the “Mutagenic [yes/no]” value [2] of the same compound?
**A.** Its value is “n^1)”.

**Q.** Which “Refractive Index” value [1] does the source give for `Clc1cccc(CC2CO2)c1OCCC1CO1` (stereo not shown) [Example 6, 4-[2-(2,3-epoxy-propyl)-6-chloro-phenoxy]-1,2-epoxybutane] here?
**A.** Its value is 1.535.

**Q.** Which “Refractive Index” value [1] does the source give for `C[Si](CCC1CCC2OC2C1)(CCC1CCC2OC2C1)c1ccccc1` (stereo not shown) [Reference Compound 2, Bis[2-(3,4-epoxycyclohexyl)-ethyl]-methyl-phenyl-silane, reference compound] here?
**A.** The value was 1.536.

**Q.** With `c1cc(OCC2CO2)ccc1Cc1ccc(OCC2CO2)cc1` (stereo not shown) [Reference Compound 3, Bis[4-(2,3-epoxy-propyloxy)-phenyl]-methane, reference compound] as the compound, how does the “Refractive Index” value [1] read?
**A.** Its value is 1.579.

**Q.** For `C[Si]1(CCC2CCC3OC3C2)O[Si](C)(CCC2CCC3OC3C2)O[Si](C)(CCC2CCC3OC3C2)O[Si](C)(CCC2CCC3OC3C2)O1` (stereo not shown) [Reference Compound 1, 1,3,5,7-Tetrakis[2-(3,4-epoxycyclohexyl)-ethyl]-1,3,5,7-tetramethyl-cyclotetrasiloxane, reference compound], which “Refractive Index” value [1] is on record?
**A.** The value was 1.496.

**Q.** With “1,5-Bis[2-(2,3-epoxy-propyl)-6-chloro-phenyl]-pentane [Example 1]” as the compound, how does the “Refractive Index” value [1] read?
**A.** The value was 1.552.

**Q.** And the “Mutagenic [yes/no]” value [2]?
**A.** The value was “n^1)”.

**Q.** With `CC(C)(c1ccc(OCCCC2CO2)cc1)c1ccc(OCCCC2CO2)cc1` (stereo not shown) [Reference Compound 5, 2,2-Bis[4-(4,5-epoxy-pentyloxy)-phenyl]-propane, reference compound] as the compound, how does the “Refractive Index” value [1] read?
**A.** Its value is 1.551.

**Q.** Which “Refractive Index” value [1] does the source give for `CC(C)(c1ccc(OCCC2CO2)cc1)c1ccc(OCCC2CO2)cc1` (stereo not shown) [Reference Compound 4, 2,2-Bis[4-(3,4-epoxy-butyloxy)-phenyl]-propane, reference compound] here?
**A.** Its value is 1.563.

**Q.** Which results are given for `CC(C)(c1cc(Br)c(OCCCC2CO2)c(Br)c1)c1cc(Br)c(OCCCC2CO2)c(Br)c1` (stereo not shown) [Example 5, 2,2-Bis[3,5-dibromo-4-(4,5-epoxy-pentyloxy)-phenyl]-propane]?
**A.** Refractive Index [1]: 1.604; Mutagenic [yes/no] [2]: n^1)

**Q.** For `CC(C)(c1cc(Br)c(OCCC2CO2)c(Br)c1)c1cc(Br)c(OCCC2CO2)c(Br)c1` (stereo not shown) [Example 4, 2,2-Bis[3,5-dibromo-4-(3,4-epoxy-butyloxy)-phenyl]-propane], which “Refractive Index” value [1] is on record?
**A.** Its value is 1.610.

**Q.** And the “Mutagenic [yes/no]” value [2]?
**A.** The value was “n^1)”.
